# In patent US20230405004A1 (NEURORIVE INC, priority 2020, published 2023):
# Assays:
# [1] = tested on: 5xFAD mouse; assay: Morris water maze (MWM) task; format: in vivo; conditions: for Escape latency (Increase or decrease compared to mutated mouse vehicle group): DAY 4; for time spent in the target quadrant (Increase or decrease compared to mutated mouse vehicle group): probe test DAY 5
# Experimental: The 5xFAD mouse used in this experiment was a genetically modified mouse model in which Alzheimer's disease-inducing genes were inserted. Specifically, mice over-expressed both the amyloid precursor protein with the Swedish mutation (K670N, M671L), the Florida mutation […], and the London mutation (V717I) and PS1 with the M146L and L286V mutations. The 5xFAD mouse model is the most widely used in Alzheimer's disease studies.
# A Morris water maze (MWM) task was conducted to examine an effect on improving cognitive function depending on the administration of the complex composition of the present invention. The experimental equipment was comprised of a circular water tank (150 cm in diameter and 45 cm in height) filled with water having a temperature of about 22±2° C., an escape platform (10 cm in diameter and 30 cm in height), and 4 markers attached to the wall that allows the mouse to remember the location of the escape platform. The above markers remained unchanged throughout the test period. The escape platform was placed 1 cm above the water surface or 0.5 to 1.5 cm below the water surface according to the purpose of the experiment. When placed under the water surface, the water was made opaque with white water-based paint so that the escape platform was not visible to the eye. The Morris water maze was divided into four quadrants, i.e., northeast (NE), northwest (NW), southeast (SE) and southwest (SW), wherein the escape platform was placed in the center of the southwest quadrant, and the mouse started randomly from one of the others.
# The escape platform was made visible on Learning DAY 0. Each mouse was trained to recognize that it was possible to escape when they swam toward the escape platform and landed thereon. On DAY 1-4, the escape platform was hidden by being placed under the water, and then the mice learned the position of the escape platform. The time limit was set to 60 seconds, and if the mouse found the escape platform within 60 seconds, it was allowed to stay on the escape platform for 5 seconds. The mice were then immediately transferred to the breeding cage. On DAY 5, the probe test was performed without the escape platform. The probe test was performed by placing the mouse in the farthest part of the quadrant where the escape platform was placed during the training day, and 60 seconds was set as the time limit. The indexes of cognitive function include the escape latency which is the time required for the mouse to find the escape platform and the time spent in the quadrant where the escape platform was placed. It was judged that the shorter the time it takes to escape (FIG. 2A) and the longer the mouse stays in the quadrant where the escape platform was placed (FIG. 2B), the better the memory and learning ability of the mouse.
# Then, each group was subjected to oral administration for 4 weeks to perform the experiment.
# [2] = tested on: 5xFAD mouse; assay: Y-maze test; format: in vivo; conditions: donepezil 2 mg/kg oral
# Experimental: In order to test an improvement effect on short-term working memory ability according to the administration of the complex composition of the present invention, a Y-maze test was performed using the mouse model of the Alzheimer's disease described above. For the experiment, a Y-shaped maze (36 cm in width, 16 cm in length, 15 cm in height) having three arms was used, and the mice started randomly in three arms. The mice were placed in the maze, then the number of times when the center of the mouse body entered each arm and the cases in which the mice entered each arm sequentially were checked. The alternation behavior is defined as consecutive entries in three different arms without overlapping, and spontaneous alternation behavior was calculated by the following equation:
# Alternation (%)=(the number of entities into all the 3 arms on consecutive/the number of entirety arms entries−2)×100
# Then, each group was subjected to oral administration to perform the experiment.
compound,measurement,setting,value
"COc1cc2c(cc1OC)C(=O)C(CC1CCN(Cc3ccccc3)CC1)C2 (stereo not drawn) [Donepezil, donepezil]",Escape latency (Increase or decrease compared to mutated mouse vehicle group),[1]; donepezil 1 mg/kg oral 4 weeks,−20.15%
same,time spent in the target quadrant (Increase or decrease compared to mutated mouse vehicle group),[1]; donepezil 1 mg/kg oral 4 weeks,51.63%
same,Escape latency (Increase or decrease compared to mutated mouse vehicle group),[1]; donepezil 2 mg/kg oral 4 weeks,−33.79%
same,time spent in the target quadrant (Increase or decrease compared to mutated mouse vehicle group),[1]; donepezil 2 mg/kg oral 4 weeks,148.46%
same,"escape latency reduced by, based on the mutant mouse vehicle group","[1]; mutated mouse, donepezil 2 mg/kg alone, stated as reduction",33.79%
same,Voluntary alternation behavior (Increase or decrease compared to mutated mouse vehicle group),[2],25.15%
